Results from patent publication US11564923B2, “Compounds and pharmaceutical compositions thereof for the treatment of inflammatory disorders” (Galapagos NV, priority 2017, dated 2023).
Structures can show the parent of a compound that is named as a salt.

Assays:
[1] = target: T1, Recombinant human TYK2 catalytic domain (amino acids 871-1187) (Homo sapiens, UniProt P29597); assay: TYK2 radioactive assay polyGT substrate; assay type: biochemical; also: 0.1 µM ATP
T1 construct: catalytic domain (amino acids 871-1187)
T1 sequence (P29597 871-1187): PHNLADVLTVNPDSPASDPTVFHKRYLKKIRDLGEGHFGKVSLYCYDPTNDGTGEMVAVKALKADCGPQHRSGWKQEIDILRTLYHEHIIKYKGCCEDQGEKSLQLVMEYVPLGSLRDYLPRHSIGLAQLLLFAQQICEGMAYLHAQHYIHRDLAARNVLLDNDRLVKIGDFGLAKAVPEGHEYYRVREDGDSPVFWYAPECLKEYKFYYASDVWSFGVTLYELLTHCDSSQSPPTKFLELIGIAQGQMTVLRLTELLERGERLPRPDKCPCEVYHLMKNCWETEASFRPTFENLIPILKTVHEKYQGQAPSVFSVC
Description: After 120 min at 30° C., reactions were stopped by adding 25 μL/well of 150 mM phosphoric acid. […] Plates were washed 6 times with 300 μL per well of a 75 mM phosphoric acid solution and the bottom of the plates is sealed. […] Kinase activity is calculated by subtracting counts per min (cpm) obtained in the presence of a positive control inhibitor (10 μM staurosporine) from cpm obtained in the presence of vehicle. The ability of a test compound to inhibit this activity (or percentage inhibition) is determined as: […]
cpm test compound=cpm determined for sample with test compound present cpm control=cpm determined for sample with positive control inhibitor cpm vehicle=cpm determined in the presence of vehicle
Dose dilution series were prepared for the compounds enabling the testing of dose-response effects in the TYK2 assay and the calculation of the IC50 for each compound. Each compound is routinely tested at concentration of 20 μM followed by a 1/5 serial dilution, 10 points in a final concentration of 1% DMSO.

[2] = test system: IFNα activation of STAT1 in PBMC; assay: IFNα activation of STAT1 in PBMC; assay type: cell-based; settings: Homo sapiens; IFNα activation of STAT1 in PBMC; average IC50; read-out: IFNα signaling inhibitory potency IC50
Description: After these 2 wash steps the cell pellet is dissolved in ammonium chloride buffer (1.5 M NH4Cl, 100 mM NaHCO3 and 10 mM Na2.EDTA) for lysis of the red blood cells.
PBMC are treated with test compound for 30 min at 37° C. 5% CO2. […] After 30 min of test compound/vehicle pre-treatment, PBMC are stimulated for 30 min at 37° C. 5% CO2 with recombinant human IFNα (PeproTech, catalog number 300-02A) at a final concentration of 5 ng/mL by addition of 20 μL (10× concentrated) cytokine trigger to obtain a final volume of 200 μL per well.
After 30 min of cytokine stimulation, 200 μL of cell suspension is transferred to a 96-well V-bottom plate, centrifugated for 5 min at 1000 rpm to pellet cells, followed by removal of supernatant.
(§1) The percentage inhibition is calculated as: […]
RCLU(vehicle control): Relative Chemiluminescent signal determined in presence of vehicle and trigger
RCLU(test compound): Relative Chemiluminescent signal determined in presence of test compounds and trigger
RCLU(positive control): Relative Chemiluminescent signal determined in presence of positive control and trigger
PIN values are plotted for compounds tested in dose-response and average IC50 values are derived using GraphiPad Prism Software applying non-linear regression (sigmoidal) curve fitting.

[3] = test system: IL-12 activation of STAT4 in NK-92 cells; assay: IL-12 activation of STAT4 in NK-92 cells using AphaLISA SureFire technology; assay type: cell-based; settings: Homo sapiens, NK92; IL-12 activation of STAT4 in NK-92 cells, AlphaLISA SureFire; average IC50; read-out: IL12 pSTAT4 IC50
Description: IL-2 is added freshly to the medium with each medium refreshment step. Cells are cultured in a humidified incubator at 37° C. 5% CO2.
A subcultured fraction of NK-92 cells is washed once in culture medium without rhIL-2 the day before the experiment and incubated overnight in a culture flask.
5% CO2. […] NK-92 cells are triggered with rhIL-12 for 30 min at 37° C. 5% CO2.
After 30 min of cytokine stimulation the cells are lysed by addition of 15 μL 5× lysis buffer (supplemented with the AlphaLISA kit). After 10 minutes, plates are frozen at −80° C. overnight and the next day the levels of phospho-STAT4 are quantified using the AlphaLISA SureFire ULTRA p-STAT4 (Tyr693) (Perkin Elmer, Catalogue number ALSU-PST4-A10K) according to the manufacturers instructions. AlphaLISA signal (relative light units) is measured using an Envision (Perkin Elmer).
as §1
RLU(trigger/veh): Relative lumescent signal determined in presence of vehicle and trigger
RLU(test compound): Relative luminescent signal determined in presence of test compounds and trigger
PIN values are plotted for compounds tested in dose-response and IC50 values are derived using GraphPad Prism Software applying non-linear regression (sigmoidal) curve fitting. The data are expressed as the average IC50 from different experiments.

SMILES	IC50 [1]	IC50 [3]	IC50 [2]
Cc1cc(C#N)ncc1Oc1cc(Nc2ccc(C(=O)N3CCO[C@@H](C)C3)cn2)c2ncn(C)c2n1 [Compound 144, 4-methyl-5-[3-methyl-7-[[5-[(2S)-2-methylmorpholine-4-carbonyl]pyridin-2-yl]amino]imidazo[4,5-b]pyridin-5-yl]oxypyridine-2-carbonitrile]	2.15 nM	211 nM	119 nM
Cc1cc(C#N)ncc1Oc1cc(Nc2ccc(C(=O)N3CC(O)C3)cn2)c2ncn(C)c2n1 [Compound 96, 5-[7-[[5-(3-hydroxyazetidine-1-cabonyl)-2-pyridyl]amino]-3-methyl-imidazo[4,5-b]pyridin-5-yl]oxy-4-methyl-pyridine-2-carbonitrile]	2.51 nM	358 nM	73 nM
Cc1cc(C#N)ncc1Oc1cc(Nc2ccc(C(=O)N3C[C@@H](O)[C@H](N(C)C)C3)cn2)c2ncn(C)c2n1 [Compound 153, 5-{7-[5-((3R,4R)-3-Dimethylamino-4-hydroxy-pyrrolidine-1-carbonyl)-pyridin-2-ylamino]-3-methyl-3H-imidazo[4,5-b]pyridin-5-yloxy}-4-methyl-pyridine-2-carbonitrile]	1.83 nM	7580 nM	234 nM
Cc1cc(C#N)ncc1Oc1cc(Nc2ccc(C(=O)N3CCC(C)(O)CC3)cn2)c2ncn(C)c2n1 [Compound 138, 5-[7-[[5-(4-hydroxy-4-methylpiperidine-1-carbonyl)pyridin-2-yl]amino]-3-methylimidazo[4,5-b]pyridin-5-yl]oxy-4-methylpyridine-2-carbonitrile]	1.66 nM	332 nM	91 nM
CCc1cc(C#N)ncc1Oc1cc(Nc2ccc(C(=O)N3CCOCC3)cn2)c2ncn(C)c2n1 [Compound 7, 4-Ethyl-5-{3-methyl-7-[5-(morpholine-4-carbonyl)-pyridin-2-ylamino]-3H-imidazo[4,5-b]pyridin-5-yloxy}-pyridine-2-carbonitrile]	0.59 nM	133 nM	49 nM
Cc1cc(C#N)ncc1Oc1cc(Nc2ccc(C(=O)N3CC[C@@H](N(C)C)C3)cn2)c2ncn(C)c2n1 [Compound 107, 5-[7-[[5-[(3R)-3-(dimethylamino)pyrrolidine-1-carbonyl]pyridin-2-yl]amino]-3-methylimidazo[4,5-b]pyridin-5-yl]oxy-4-methylpyridine-2-carbonitrile]	5.44 nM	622 nM	110 nM
Cc1cc(C#N)ncc1Oc1cc(Nc2ccc(C(=O)N3CC4CC3CO4)cn2)c2ncn(C)c2n1 (stereo not drawn) [Compound 158, 4-methyl-5-[3-methyl-7-[[5-(2-oxa-5-azabicyclo[2.2.1]heptane-5-carbonyl)pyridin-2-yl]amino]imidazo[4,5-b]pyridin-5-yl]oxypyridine-2-carbonitrile]	1.21 nM	204 nM	87 nM
Cc1cc(C#N)ncc1Oc1cc(Nc2ccc(C(=O)N3CCO[C@H](C)C3)cn2)c2ncn(C)c2n1 [Compound 145, 4-methyl-5-[3-methyl-7-[[5-[(2R)-2-methylmorpholine-4-carbonyl]pyridin-2-yl]amino]imidazo[4,5-b]pyridin-5-yl]oxypyridine-2-carbonitrile]	2 nM	238 nM	134 nM
Cc1cc(C#N)ncc1Oc1cc(Nc2ccc(C(=O)N3C[C@@H](C)O[C@H](C)C3)cn2)c2ncn(C)c2n1 (racemic) [Compound 149, 4-methyl-5-[3-methyl-7-[[5-[rac-(2R,6R)-2,6-dimethylmorpholine-4-carbonyl]pyridin-2-yl]amino]imidazo[4,5-b]pyridin-5-yl]oxypyridine-2-carbonitrile]	3.66 nM	347 nM	218 nM
Cc1cc(C#N)ncc1Oc1cc(Nc2ccc(C(=O)N3CCN(C(C)C)CC3)cn2)c2ncn(C)c2n1 [Compound 46, 4-methyl-5-[3-methyl-7-[[5-(4-propan-2-ylpiperazine-1-carbonyl)pyridin-2-yl]amino]imidazo[4,5-b]pyridin-5-yl]oxypyridine-2-carbonitrile]	1.47 nM	210 nM	76 nM
Cc1cc(C#N)ncc1Oc1cc(Nc2ccc(C(=O)N3C[C@H](O)[C@@H](N4CCOCC4)C3)cn2)c2ncn(C)c2n1 [Compound 154, 5-{7-[5-((3S,4S)-3-Hydroxy-4-morpholin-4-yl-pyrrolidine-1-carbonyl)-pyridin-2-ylamino]-3-methyl-3H-imidazo[4,5-b]pyridin-5-yloxy}-4-methyl-pyridine-2-carbonitrile]	3.36 nM	8720 nM	351 nM

Continued by falling IC50 [1], values first:

IC50 [1]	IC50 [3]	SMILES	IC50 [2]
8.15 nM	195 nM	Cc1cc(C#N)ncc1Oc1cc(Nc2ccc(CN3CCOCC3)cn2)c2ncn(C)c2n1 [Compound 82, 4-methyl-5-[3-methyl-7-[[5-(morpholin-4-ylmethyl)pyridin-2-yl]amino]imidazo[4,5-b]pyridin-5-yl]oxypyridine-2-carbonitrile formate salt]	126 nM
6.67 nM	981 nM	Cc1cc(C#N)ncc1Oc1cc(Nc2ccc(C(=O)N3CC[C@H](N(C)C)C3)cn2)c2ncn(C)c2n1 [Compound 133, 5-[7-[[5-[(3S)-3-(dimethylamino)pyrrolidine-1-carbonyl]pyridin-2-yl]amino]-3-methylimidazo[4,5-b]pyridin-5-yl]oxy-4-methylpyridine-2-carbonitrile]	121 nM
2.88 nM	108 nM	COCC1CN(C(=O)c2ccc(Nc3cc(Oc4cnc(C#N)cc4C)nc4c3ncn4C)nc2)C1 [Compound 104, 5-[7-[[5-[3-(methoxymethyl)azetidine-1-carbonyl]-2-pyridyl]amino]-3-methyl-imidazo[4,5-b]pyridin-5-yl]oxy-4-methyl-pyridine-2-carbontrile]	65 nM
2.73 nM	63.5 nM	COC1CN(C(=O)c2ccc(Nc3cc(Oc4cnc(C#N)cc4C)nc4c3ncn4C)nc2)C1 [Compound 103, 5-[7-[[5-(3-methoxyazetidine-1-carbonyl)-2-pyridyl]amino]-3-methyl-imidazo[4,5-b]pyridin-5-yl]oxy-4-methyl-pyridine-2-carbonitrile]	68 nM
2.08 nM	160 nM	Cc1cc(C#N)ncc1Oc1cc(Nc2ccc(C(=O)N3C[C@@H](C)O[C@@H](C)C3)cn2)c2ncn(C)c2n1 [Compound 148, 4-methyl-5-[3-methyl-7-[[5-[rac-(2R,6S)-2,6-dimethylmorpholine-4-carbonyl]pyridin-2-yl]amino]imidazo[4,5-b]pyridn-5-yl]oxypyridine-2-carbonitrile]	142 nM
2.02 nM	84 nM	Cc1cc(C#N)ncc1Oc1cc(Nc2ccc(C(=O)N3CCN(C4CCC4)CC3)cn2)c2ncn(C)c2n1 [Compound 47, 5-[7-[[5-(4-cyclobutylpiperazine-1-carbonyl)pyridin-2-yl]amino]-3-methylimidazo[4,5-b]pyridin-5-yl]oxy-4-methylpyridine-2-carbonitrile]	52 nM
